In PubChem BioAssay (NCI):
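Growth conditions: 96-well plates. Treatment: test compound, 48 hours, 5 concentrations. Analysis: linear interpolation between bracketing concentrations; unreached endpoints set to highest concentration. The concentration for full growth arrest is given as TGI.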

Experiments:
Test in all cases: inhibition of tumour cell growth, NCI panel, 48 h
U251 CNS = system: U251 CNS
SK-MEL-2 melanoma = system: SK-MEL-2 melanoma
NCI-H522 lung = system: NCI-H522 lung
UACC-62 melanoma = system: UACC-62 melanoma
RXF-631 renal = system: RXF-631 renal
TK-10 renal = system: TK-10 renal
A498 renal = system: A498 renal
HCT-15 colon = system: HCT-15 colon
DMS 273 small cell lung = system: DMS 273 small cell lung
SW-620 colon = system: SW-620 colon
ACHN renal = system: ACHN renal
KM20L2 colon = system: KM20L2 colon
DMS 114 small cell lung = system: DMS 114 small cell lung
SK-MEL-5 melanoma = system: SK-MEL-5 melanoma
SK-MEL-28 melanoma = system: SK-MEL-28 melanoma
HOP-62 NSCLC = system: HOP-62 NSCLC
HL-60(TB) leukemia = system: HL-60(TB) leukemia
SR leukemia = system: SR leukemia
COLO 205 colon = system: COLO 205 colon
UO-31 renal = system: UO-31 renal
RXF 393 renal = system: RXF 393 renal
SN12C renal = system: SN12C renal
OVCAR-8 ovarian = system: OVCAR-8 ovarian
MOLT-4 leukemia = system: MOLT-4 leukemia
LXFL 529 NSCLC = system: LXFL 529 NSCLC
K-562 leukemia = system: K-562 leukemia
SNB-75 CNS = system: SNB-75 CNS
HCT-116 colon = system: HCT-116 colon
HT29 colon = system: HT29 colon
IGROV1 ovarian = system: IGROV1 ovarian
CCRF-CEM leukemia = system: CCRF-CEM leukemia
OVCAR-4 ovarian = system: OVCAR-4 ovarian
M14 melanoma = system: M14 melanoma
MALME-3M melanoma = system: MALME-3M melanoma
SNB-78 CNS = system: SNB-78 CNS
A549 NSCLC = system: A549 NSCLC
UACC-257 melanoma = system: UACC-257 melanoma
KM12 colon = system: KM12 colon
OVCAR-5 ovarian = system: OVCAR-5 ovarian
HOP-18 NSCLC = system: HOP-18 NSCLC
NCI-H460 lung = system: NCI-H460 lung
DLD-1 colon = system: DLD-1 colon
EKVX NSCLC = system: EKVX NSCLC
786-0 renal = system: 786-0 renal
NCI-H226 lung = system: NCI-H226 lung
NCI-H23 lung = system: NCI-H23 lung
LOX IMVI melanoma = system: LOX IMVI melanoma
M19-MEL melanoma = system: M19-MEL melanoma
SNB-19 CNS = system: SNB-19 CNS
SK-OV-3 ovarian = system: SK-OV-3 ovarian
OVCAR-3 ovarian = system: OVCAR-3 ovarian
SF-539 CNS = system: SF-539 CNS
SF-268 CNS = system: SF-268 CNS
HCC-2998 colon = system: HCC-2998 colon
BT-549 breast = system: BT-549 breast
HOP-92 NSCLC = system: HOP-92 NSCLC
SF-295 CNS = system: SF-295 CNS
MDA-N = system: MDA-N
MDA-MB-231 breast = system: MDA-MB-231 breast
RPMI-8226 leukemia = system: RPMI-8226 leukemia
NCI/ADR-RES ovarian = system: NCI/ADR-RES ovarian
MDA-MB-435 = system: MDA-MB-435
HS 578T breast = system: HS 578T breast
CAKI-1 renal = system: CAKI-1 renal
MCF7 breast = system: MCF7 breast
DU-145 prostate = system: DU-145 prostate
T-47D breast = system: T-47D breast
PC-3 prostate = system: PC-3 prostate
XF 498 CNS = system: XF 498 CNS

## O=C1C[C@@H]2C(COC(=O)c3ccccc3)N(OCc3ccccc3)C[C@@H]2O1 (stereo not given in full)
U251 CNS
  TGI: > 100 µM
SK-MEL-2 melanoma
  TGI: > 100 µM
NCI-H522 lung
  TGI: > 100 µM
UACC-62 melanoma
  TGI: > 100 µM
RXF-631 renal
  TGI: > 100 µM
TK-10 renal
  TGI: > 100 µM
A498 renal
  TGI: > 100 µM
HCT-15 colon
  TGI: > 100 µM
DMS 273 small cell lung
  TGI: > 100 µM
SW-620 colon
  TGI: > 100 µM
ACHN renal
  TGI: > 100 µM
KM20L2 colon
  TGI: > 100 µM
DMS 114 small cell lung
  TGI: > 100 µM
SK-MEL-5 melanoma
  TGI: > 100 µM
SK-MEL-28 melanoma
  TGI: > 100 µM
HOP-62 NSCLC
  TGI: > 100 µM
HL-60(TB) leukemia
  TGI: > 100 µM
SR leukemia
  TGI: > 100 µM
COLO 205 colon
  TGI: > 100 µM
UO-31 renal
  TGI: > 100 µM
RXF 393 renal
  TGI: > 100 µM
SN12C renal
  TGI: > 100 µM
OVCAR-8 ovarian
  TGI: > 100 µM
MOLT-4 leukemia
  TGI: > 100 µM
LXFL 529 NSCLC
  TGI: > 100 µM
K-562 leukemia
  TGI: > 100 µM
SNB-75 CNS
  TGI: > 100 µM
HCT-116 colon
  TGI: > 100 µM
HT29 colon
  TGI: > 100 µM
IGROV1 ovarian
  TGI: > 100 µM
CCRF-CEM leukemia
  TGI: > 100 µM
OVCAR-4 ovarian
  TGI: > 100 µM
M14 melanoma
  TGI: > 100 µM
MALME-3M melanoma
  TGI: > 100 µM
SNB-78 CNS
  TGI: > 100 µM
A549 NSCLC
  TGI: > 100 µM
UACC-257 melanoma
  TGI: > 100 µM
KM12 colon
  TGI: > 100 µM
OVCAR-5 ovarian
  TGI: > 100 µM
HOP-18 NSCLC
  TGI: > 100 µM
NCI-H460 lung
  TGI: > 100 µM
DLD-1 colon
  TGI: > 100 µM
EKVX NSCLC
  TGI: > 100 µM
786-0 renal
  TGI: > 100 µM
NCI-H226 lung
  TGI: > 100 µM
NCI-H23 lung
  TGI: > 100 µM
LOX IMVI melanoma
  TGI: > 100 µM
M19-MEL melanoma
  TGI: > 100 µM
SNB-19 CNS
  TGI: > 100 µM
SK-OV-3 ovarian
  TGI: > 100 µM
OVCAR-3 ovarian
  TGI: > 100 µM
SF-539 CNS
  TGI: > 100 µM
SF-268 CNS
  TGI: > 100 µM
HCC-2998 colon
  TGI: > 100 µM

## O=C1CSC(/C(=C\c2ccc(Cl)cc2)c2nc3ccccc3[nH]2)=N1
U251 CNS
  TGI: 25.6 µM
SK-MEL-2 melanoma
  TGI: 34.5 µM
NCI-H522 lung
  TGI: 12.6 µM
UACC-62 melanoma
  TGI: 33.5 µM
TK-10 renal
  TGI: 24.8 µM
BT-549 breast
  TGI: 36.6 µM
A498 renal
  TGI: 16 µM
HCT-15 colon
  TGI: 52.4 µM
DMS 273 small cell lung
  TGI: 37.6 µM
SW-620 colon
  TGI: 35.6 µM
ACHN renal
  TGI: 19 µM
KM20L2 colon
  TGI: 52.1 µM
SK-MEL-5 melanoma
  TGI: 24.6 µM
SK-MEL-28 melanoma
  TGI: 32.6 µM
HOP-62 NSCLC
  TGI: 5.82 µM
HL-60(TB) leukemia
  TGI: > 68.8 µM
HOP-92 NSCLC
  TGI: 25.1 µM
SR leukemia
  TGI: 94.4 µM
COLO 205 colon
  TGI: 36.4 µM
SF-295 CNS
  TGI: 22.8 µM
UO-31 renal
  TGI: 7.64 µM
MDA-N
  TGI: 37.6 µM
RXF 393 renal
  TGI: 2.14 µM
SN12C renal
  TGI: 34.2 µM
MDA-MB-231 breast
  TGI: 28.3 µM
OVCAR-8 ovarian
  TGI: 32 µM
RPMI-8226 leukemia
  TGI: > 100 µM
MOLT-4 leukemia
  TGI: > 100 µM
NCI/ADR-RES ovarian
  TGI: 36.9 µM
LXFL 529 NSCLC
  TGI: 35.2 µM
K-562 leukemia
  TGI: > 100 µM
MDA-MB-435
  TGI: 32.6 µM
SNB-75 CNS
  TGI: 28.8 µM
HCT-116 colon
  TGI: 30.4 µM
HT29 colon
  TGI: 46.5 µM
IGROV1 ovarian
  TGI: 22.4 µM
CCRF-CEM leukemia
  TGI: > 75.7 µM
OVCAR-4 ovarian
  TGI: 31.8 µM
M14 melanoma
  TGI: 40.3 µM
HS 578T breast
  TGI: 53.2 µM
CAKI-1 renal
  TGI: 21.5 µM
MALME-3M melanoma
  TGI: 31.6 µM
MCF7 breast
  TGI: 28.7 µM
SNB-78 CNS
  TGI: > 100 µM
A549 NSCLC
  TGI: 16.4 µM
DU-145 prostate
  TGI: 26.2 µM
UACC-257 melanoma
  TGI: 34.7 µM
KM12 colon
  TGI: 28.5 µM
OVCAR-5 ovarian
  TGI: 33.5 µM
T-47D breast
  TGI: 31.7 µM
NCI-H460 lung
  TGI: 32.2 µM
DLD-1 colon
  TGI: 32.5 µM
PC-3 prostate
  TGI: 36.5 µM
EKVX NSCLC
  TGI: 32.2 µM
786-0 renal
  TGI: 26.4 µM
NCI-H226 lung
  TGI: 18.2 µM
NCI-H23 lung
  TGI: 30.7 µM
LOX IMVI melanoma
  TGI: 32.4 µM
XF 498 CNS
  TGI: 3.01 µM
M19-MEL melanoma
  TGI: 28.8 µM
SNB-19 CNS
  TGI: 33.9 µM
SK-OV-3 ovarian
  TGI: 24.1 µM
OVCAR-3 ovarian
  TGI: 20.9 µM
SF-539 CNS
  TGI: 2.06 µM
SF-268 CNS
  TGI: 23 µM
HCC-2998 colon
  TGI: 17.7 µM
